According to patent publication US6958233B2, “Process for the preparation of pharmaceutically acceptable salts of (R,S)-S-adenosyl-L-methionine” (Chementecno S.r.l., priority 2000, dated 2005):

What was measured:
[1] = HPLC analysis of the (S)-(+)-SAMe / (R)-(+)-SAMe diastereoisomer content (stability in time); format: physicochemical; details: after four months from the date of production
Description: 3 samples of SAMIR® [(R,S)-SAMe], produced by Knoll Farmaceutici S.p.A., were analyzed by HPLC. The values measured for each sample are as follows:
The products obtained according to the process of the invention in EXAMPLES 1-3, samples 4-6 respectively, were analyzed, similarly to what has been described in example 4, after four months from the date of their production.
The measured values for each sample were as follows: […]

[2] = tested on: enzymatic transmethylation; details: De La Haba et al., J.A.C.S. 1959; cited from earlier work
[3] = Wu et al., Biochemistry 1983; cited from earlier work

| percentage of (R)-(+)-SAMe [1] | percentage of (S)-(+)-SAMe [1] | percentage of (R)-(+)-SAMe ([1]; listed as sample N. 4) | Compound | enzymatic activity for the transmethylation [2] | formation of the inactive diastereoisomer (R)-(+)-SAMe by spontaneous racemisation [3] |
| --- | --- | --- | --- | --- | --- |
| 2% | 98% | – | C[S+](CC[C@H](N)C(=O)[O-])C[C@H]1O[C@@H](n2cnc3c(N)ncnc32)[C@H](O)[C@@H]1O.Cc1ccc(S(=O)(=O)O)cc1.O=S(=O)(O)O.O=S(=O)(O)O (single isomer, unassigned) [SAMPLE 6] | – | – |
| – | – | – | C[S@@+](CC[C@H](N)C(=O)[O-])C[C@H]1O[C@@H](n2cnc3c(N)ncnc32)C(O)C1O (stereo in doubt) [(R)-(+)-SAMe, (R)-(+)-S-adenosyl-L-methionine] | inactive | – |
| 1% | 99% | 1% | C[S+](CC[C@H](N)C(=O)[O-])C[C@H]1O[C@@H](n2cnc3c(N)ncnc32)[C@H](O)[C@@H]1O.Cc1ccc(S(=O)(=O)O)cc1.O=S(=O)(O)O.O=S(=O)(O)O (single isomer, unassigned) [SAMPLE 4] | – | – |
| – | – | – | C[S@@+](CC[C@H](N)C(=O)[O-])C[C@H]1O[C@@H](n2cnc3c(N)ncnc32)C(O)C1O (stereo in doubt) [(S)-(+)-SAMe, (S)-(+)-S-adenosyl-L-methionine] | enzymatically active | about 20% |
| 2% | 98% | – | C[S+](CC[C@H](N)C(=O)[O-])C[C@H]1O[C@@H](n2cnc3c(N)ncnc32)[C@H](O)[C@@H]1O.Cc1ccc(S(=O)(=O)O)cc1.O=S(=O)(O)O.O=S(=O)(O)O (single isomer, unassigned) [SAMPLE 5, (SS, RS)-SAMe disulphate paratoluensulphonate] | – | – |
